Key:
[1] = system: PKG; assay: Ovalbumine model, PKG expression; format: in vivo, BALB/c mice; details: 28-day experiment; nebulization
Protocol: (§1) In this long-term experiment, 6-8 week old BALB/c female mice were sensitized on days 1 and 8 by intra-peritoneal injection (i.p.) of ovalbumine (10 μg) (Sigma-Aldrich, Schnelldorf, Germany) adsorbed to 2 mg aluminum hydroxide (AlumInject; Perbio, Erembodegem, Belgium). Mice were divided into three groups. In Group 1, a control group was only exposed to saline nebulization by aerosol. The other 2 groups were subjected to ovalbumine (1%) nebulization. Before each challenge with ovalbumine, mice were either exposed to saline nebulization (Group 2) or KMUP-1 nebulization (5 mM) for 30 min by aerosol (Group 3).
(§2) The lung tissues were homogenized, washed with PBS and incubated in lysis buffer in addition to a protease inhibitor cocktail (Sigma, St. Louis, Mo.) to obtain extracts of lung proteins. A Western blot analysis was performed as described previously (Wu B N, et al., 2006). The samples were loaded to 10% SDS-PAGE gels and were separated at 120 V for 90 min. The blots were incubated with anti-eNOS antibody diluted at a ratio of 1:500, anti-sGCα1 antibody diluted at a ratio of 1:2000, anti-PKG antibody diluted at a ratio of 1:500, anti-VCAM-1 antibody diluted at a ratio of 1:500, anti-ICAM-1 antibody diluted at a ratio of 1:500, and anti-MMP-9 antibody diluted at a ratio of 1:600 overnight at 4° C. […]

[2] = system: eNOS; assay: Ovalbumine model, eNOS immunostaining in lung sections; parameters: species or system BALB/c mice; details: mouse, in vivo
Protocol: as §1
Immunohistochemical analysis of eNOS enhancement by KMUP-1 was performed as follows. The lungs were perfused with saline followed by 10% formalin and then placed in 10% formalin for paraffin embedding. The lung tissues were cut into […] sections onto slides, dewaxed in 100% xylene, and then re-hydrated in graded alcohol solutions. Throughout the procedures, slides were washed as appropriate in PBS. Antigen retrieval was performed by microwave treatment for eNOS immunostaining. Sections were treated with 3% H2O2 (10 min) to inhibit endogenous peroxidases and incubated with normal serum (60 min) to reduce nonspecific binding of secondary antibodies. Sections were then incubated at 4° C. overnight with eNOS antibodies. […]

[3] = system: pulmonary artery rings; assay: Isometric force of 5-HT-constricted pulmonary artery rings; parameters: species or system Wistar rats
Protocol: Wistar rats were euthanized with an overdose of sodium pentobarbital (60 mg/kg, i.p.) before open-chest surgery. During surgery, a thoracic retractor was used to help isolate the pulmonary artery. […] The pulmonary artery ring preparations were stretched to a basal tension of 1 g and allowed to equilibrate for 60-90 min. After equilibration, pulmonary artery rings were constricted with 5-HT (10 μM) to prime the tissues and check the functionality of the endothelium (at least 80% relaxation in response to acetylcholine 1 μM). […] The effect of KMUP-1 on NOS and 5-HT was also studied in vessels pre-incubated with the NOS inhibitor L-NAME (100 μM) 20 min before 5-HT administration. The percentage of relaxation was estimated using the following equation: relaxation (%)=(maximal contraction−relaxation level)/(maximal contraction-basal level)×100. Data was obtained from serotonin-induced maximal contractile responses in pulmonary artery.

[4] = system: IL-5; assay: Ovalbumine model, plasma IL-5 (ELISA); format: in vivo, mice; details: mice sensitized and challenged by ovalbumine
Protocol: as §1

[5] = system: iNOS; assay: Ovalbumine model, iNOS expression; format: in vivo, BALB/c mice; details: 28-day experiment; nebulization
[6] = system: PASMCs; assay: Microculture tetrazolium test (MTT), PASMCs proliferation; format: cell-based, Wistar rats; details: 1-100 μM; 5-HT 10 μM 24 h
Protocol: At the end of this period, MTT (2 g/L) was added to each well, and incubation proceeded at 37° C. for 4 h. Thereafter, the medium was removed and the cells were solubilized in 150 μL DMSO.

[7] = MCT-induced chronic PAH, mean pulmonary arterial pressure; format: in vivo, Wistar rats; details: 5 mg/kg/day p.o. and 1 mg/kg/day i.p. for 21 days
Protocol: The experiments were performed in adult male Wistar rats (300 to 350 g) in accordance with institutional guidelines after approval by the ethical review committee. PAH development and pulmonary expression of 5-HTT were examined in rats after 60 mg/kg single injection (i.p.) of monocrotaline (MCT). To assess the potential preventive effect of KMUP-1 on MCT-induced PAH and associated proliferation, we assigned rats at random to 2 groups of 8 animals which received KMUP-1 at 5 mg/kg/day p.o or 1 mg/kg/day i.p. All treatments were given once a day for 3 weeks after a single MCT injection (60 mg/kg i.p.) (Abe et al., 2004). On day 21, rats were anesthetized and pulmonary artery blood pressure (MPAP) was recorded as previously described. Lung tissues were dissected for Western blotting and immunohistochemistry.

[8] = system: AKT; assay: 5-HT-induced AKT phosphorylation in PASMCs; format: cell-based, Wistar rats; details: 1-100 μM, 24 h pre-incubation
Protocol: PASMCs were stimulated with 5-HT or not, as indicated. Cells were treated with KMUP-1 for 24 h before 5-HT stimulation. Whole lysates were collected and resolved by SDS-PAGE as previously described. Primary antibodies were anti-β-actin at: 1:10,000 dilution and anti-RhoA, anti-ROCK, antiphospho-ERK1/2, anti-phospho-AKT, anti-ERK1/2, anti-AKT, anti-5HTT, anti-5-HT2B and anti-eNOS at 1:1000. All blots were incubated with antibodies at 4° C. overnight. After being washed, the appropriate secondary antibodies were added at a dilution of 1:1000 for 1 h at room temperature. After extensive washing, blots were developed with a Super Signal enhanced chemiluminescence kit (Biorad, CA, USA) and visualized on Kodak AR film.
The expression of RhoA/ROCK and phosphorylation of ERK1/2 and AKT kinase in PASMCs were assessed by incubating the PASMCs with 5-HT (10 μM) for 15 min (peak time for RhoA/ROCK, ERK1/2 and AKT phosphorylation) and 5-HTT for 10 min (peak time for 5-HTT) after KMUP-1 (1-100 μM) was added to the culture of PASMCs for 24 h.

[9] = system: sGCα1; assay: Ovalbumine model, sGCα1 expression; format: in vivo, BALB/c mice; details: 28-day experiment; nebulization
Protocol: as §1, §2

Cn1c(=O)c2c(ncn2CCN2CCN(c3ccccc3Cl)CC2)n(C)c1=O [KMUP-1, 7-[2-[4-(2-chlorophenyl)piperazinyl]ethyl]-1,3-dimethylxanthine]
decreased PKG expression by ovalbumine sensitization [1]: significantly reduced
ovalbumine-decreased vascular eNOS-immunostaining in lung sections [2]: prevented this decrease
5-HT (10 μM) contractile response in pulmonary artery ([3]; 0.1-100 μM): inhibited
maximum response of pulmonary artery to 5-HT ([3]; 10-100 μM, in the presence of L-NAME (100 μM)): reduced the maximum response
IL-5 levels in the plasma [4]: inhibited
increased iNOS expression by ovalbumine sensitization [5]: significantly reduced
PASMCs proliferation (MTT assay) [6]: dose-dependently inhibited
MCT-induced increases in mean pulmonary arterial pressure (MPAP) [7]: significantly reduced
5-HT-stimulated AKT phosphorylation [8]: concentration-dependently reduced
decreased sGCα1 expression by ovalbumine sensitization [9]: significantly reduced

From patent US20130095059A1, “INHALED NO DONOR KMUPS DERIVATIVE PREVENTING ALLERGIC PULMONARY VASCULAR AND BRONCHIAL INFLAMMATION VIA SUPPRESSED CYTOKINES, INOS AND INFLAMMATORY CELL COUNTS IN ASTHMA MODEL” (priority 2007, published 2013)
